According to paper PMC9697131, “Agomelatine, Ketamine and Vortioxetine Attenuate Energy Cell Metabolism—In Vitro Study” (International Journal of Molecular Sciences, 2022):
Like-named read-outs stand apart in the source and are kept apart here.

Assays:
citrate synthase (CS) = target: T1, citrate synthase (CS) (Sus scrofa, UniProt P00889); assay: Citrate synthase activity; type: biochemical, pig; conditions: mean, N=3
T1 construct: Frozen mitochondria (stored at −70 °C) were used for the following enzyme activity measurements: ETC complexes, citrate synthase (CS) and malate dehydrogenase (MDH) activity; from tissue; host or cells: pig brain cortex, purified mitochondrial fraction (frozen, sonicated)
T1 sequence (P00889 28-464): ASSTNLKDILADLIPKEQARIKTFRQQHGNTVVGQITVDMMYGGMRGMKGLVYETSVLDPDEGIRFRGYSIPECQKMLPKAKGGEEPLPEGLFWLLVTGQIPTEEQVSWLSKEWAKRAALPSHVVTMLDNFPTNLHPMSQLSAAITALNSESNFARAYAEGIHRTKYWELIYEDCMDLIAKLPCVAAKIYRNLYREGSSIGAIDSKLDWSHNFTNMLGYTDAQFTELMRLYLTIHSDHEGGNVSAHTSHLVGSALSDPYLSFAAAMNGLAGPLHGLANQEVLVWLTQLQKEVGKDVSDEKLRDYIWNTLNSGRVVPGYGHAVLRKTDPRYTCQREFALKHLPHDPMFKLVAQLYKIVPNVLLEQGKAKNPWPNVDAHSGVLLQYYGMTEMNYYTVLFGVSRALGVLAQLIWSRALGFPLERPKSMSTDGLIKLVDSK
Protocol: (§1) Pig brains were obtained from a slaughterhouse. Mitochondrial fraction isolation and purification from brain cortex were performed as previously described. Briefly, grey matter from pig brains was homogenized and crude mitochondrial fraction was isolated and then centrifuged on the sucrose gradient to obtain purified mitochondrial fraction. The freshly purified mitochondria were kept on ice until the assays were performed and were used for measurements of the mitochondrial oxygen consumption rate, measurements of ATP and ROS formation. Frozen mitochondria (stored at −70 °C) were used for the following enzyme activity measurements: ETC complexes, citrate synthase (CS) and malate dehydrogenase (MDH) activity.
Ultrasonication and incubation of mitochondria with the tested drugs for 30 min at 30 °C was performed before measurement with a corresponding drug-free control (DMSO) for every measurement. Mitochondrial enzymes activities were determined spectrophotometrically as absorbance using a GENESYS 180 UV-Vis Spectrophotometer (Thermo Fisher Scientific, Waltham, MA, USA).
The reaction mixture consisted of Triton, Tris, 5,5′-dithiobis-(2-nitrobenzoic) acid and acetyl coenzyme A. The reaction was started by adding oxaloacetate and the CS activity was measured by detecting the color change of 5,5′-dithiobis-(2-nitrobenzoic) acid at 412 nm with a duration of 3 min. […]

[1] = system: total H2O2 content, pig brain mitochondria; assay: Hydrogen peroxide production, Amplex Red; type: biochemical; conditions: for total H2O2 content (relative to control = 100%): mean ± SD
Protocol: as §1
Hydrogen peroxide formation was determined using an Amplex Red Hydrogen Peroxide/Peroxidase Assay Kit. The reaction mixture consisted of 27 mM HEPES (pH 7.4), 114 mM sucrose, 100 mM KCl, 1.3 mM K2HPO4, 5 mM malate, 5 mM pyruvate, 1 µM rotenone, 10 mM succinate, 0.75 mM MgCl2, […], 15 µM Amplex Red and horseradish peroxidase 0.09 U/ML. […] The reaction was stopped by the addition of antimycin A. The standard curve for hydrogen peroxide was prepared using H2O2 standard.

MAO-A = target: T2, MAO-A (Sus scrofa, UniProt Q6Q2J0); assay: MAO-A activity, radiolabeled [3H]serotonin substrate; type: biochemical, pig; conditions: for MAO-A Inhibition (type): 0.1–300 µM; for MAO-A Hillslope / MAO-A Residual Activity: mean
T2 construct: from tissue; host or cells: pig brain mitochondria
T2 sequence (Q6Q2J0 1-527): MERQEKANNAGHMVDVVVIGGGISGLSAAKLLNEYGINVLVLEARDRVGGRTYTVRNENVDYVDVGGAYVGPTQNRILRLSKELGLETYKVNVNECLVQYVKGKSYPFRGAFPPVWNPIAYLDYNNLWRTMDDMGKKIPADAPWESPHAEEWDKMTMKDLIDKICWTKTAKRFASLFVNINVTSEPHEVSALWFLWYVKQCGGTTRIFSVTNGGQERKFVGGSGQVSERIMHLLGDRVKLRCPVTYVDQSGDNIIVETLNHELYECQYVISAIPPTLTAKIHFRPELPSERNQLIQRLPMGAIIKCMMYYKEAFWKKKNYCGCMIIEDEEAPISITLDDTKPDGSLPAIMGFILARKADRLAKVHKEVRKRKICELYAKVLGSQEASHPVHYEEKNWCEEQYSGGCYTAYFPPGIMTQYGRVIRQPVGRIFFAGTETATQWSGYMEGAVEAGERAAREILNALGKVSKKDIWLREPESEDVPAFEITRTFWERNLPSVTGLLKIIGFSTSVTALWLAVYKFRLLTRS
Protocol: as §1
(§2) Mitochondria in KH buffer at final concentration of 800 µg/mL were preincubated with the tested drugs in a final concentration range of 0.1–300 µM for 60 min at 37 °C. For each measurement, there was a corresponding drug-free control (DMSO). Radiolabeled substrates ([^3H]serotonin for MAO-A and [^14C]PEA for MAO-B) were added to initiate the reaction. The reaction was carried out at 37 °C for 20 min for MAO-A and for 1 min for MAO-B, and the reaction was stopped by hydrochloric acid. The radioactivity of the organic phases of the extracts were measured by liquid scintillation counting (LS 6000IC, Beckman Instruments, Inc., Fullerton, CA, USA).
(§3) The inhibition of respiration rate and MAO activity were analyzed by A four-parameter logistic regression with Prism software (GraphPad Software, San Diego, CA, USA) was used to analyze the respiratory rate inhibition and activity of MAO. […] The IC50 represents the drug concentration required to inhibit the difference between the baseline and the residual value of the mitochondrial oxygen flux or MAO activity by 50%.

MAO-B = target: T3, MAO-B (Sus scrofa, UniProt Q6PLK3); assay: MAO-B activity, radiolabeled [14C]PEA substrate; type: biochemical, pig; conditions: for MAO-B Inhibition (type): 0.1–300 µM; for MAO-B Hillslope / MAO-B Residual Activity: mean
T3 construct: from tissue; host or cells: pig brain mitochondria
T3 sequence (Q6PLK3 1-520): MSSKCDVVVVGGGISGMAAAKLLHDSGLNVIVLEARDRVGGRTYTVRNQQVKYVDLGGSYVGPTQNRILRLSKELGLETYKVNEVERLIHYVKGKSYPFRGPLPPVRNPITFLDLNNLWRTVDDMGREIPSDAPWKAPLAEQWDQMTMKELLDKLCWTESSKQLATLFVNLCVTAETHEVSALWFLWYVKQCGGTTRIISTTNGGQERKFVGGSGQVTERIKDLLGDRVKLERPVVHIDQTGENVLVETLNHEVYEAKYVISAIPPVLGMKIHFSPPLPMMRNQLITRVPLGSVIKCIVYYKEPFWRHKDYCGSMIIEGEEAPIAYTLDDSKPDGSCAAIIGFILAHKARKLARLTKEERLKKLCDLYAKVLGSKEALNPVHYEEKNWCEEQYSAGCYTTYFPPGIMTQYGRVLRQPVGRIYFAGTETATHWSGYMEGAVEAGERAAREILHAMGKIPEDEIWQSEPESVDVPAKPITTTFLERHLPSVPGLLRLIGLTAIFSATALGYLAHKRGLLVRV
Protocol: as §1, §2, §3

[2] = mean ± SEM, 4 measurements, read-out: MAO-A IC50

Compound | CS (% of Control) (citrate synthase (CS); 10 μM drug) | CS (% of Control) (citrate synthase (CS); 100 μM drug) | total H2O2 content (relative to control = 100%) ([1]; 50 μM drug) | total H2O2 content (relative to control = 100%) ([1]; 100 μM drug) | MAO-A Inhibition (type) (MAO-A) | IC50 (MAO-A; [2]) | MAO-A Hillslope (MAO-A; 4 measurements) | MAO-A Residual Activity (MAO-A; 4 measurements) | MAO-B Inhibition (type) (MAO-B) | IC50 (MAO-B; mean ± SEM, 4 measurements, read-out: MAO-B IC50) | MAO-B Hillslope (MAO-B; 4 measurements) | MAO-B Residual Activity (MAO-B; 4 measurements) | total H2O2 content (relative to control = 100%) ([1]; 10 μM drug) | MAO-B Inhibition (type) (MAO-B; listed as AGO) | effect on total H2O2 production (in words) ([1]; 10, 50 and 100 µM) | IC50 (MAO-A) | IC50 (MAO-B)
Cc1ccc(Sc2ccccc2N2CCNCC2)c(C)c1 [vortioxetine] | 109.3 % of Control | * 96.9 % of Control | 124.5 ± 2.5% | 85.4 ± 5.0% | partial | 7.33 µM | 1.76 | 0.109 rel.u. | partial | 18.2 µM | 2.58 | 0.229 rel.u. |  |  |  |  | 
COc1ccc2cccc(CCNC(C)=O)c2c1 [agomelatine] | 108.8 % of Control | 95.7 % of Control |  |  | partial | 8.2 µM | 3.40 | 0.190 rel.u. | none |  |  |  | 130.1 ± 2.7% | did not affect its activity at all |  |  | 
CNC1(c2ccccc2Cl)CCCCC1=O (centres unmarked) [ketamine] | 107.3 % of Control | 97.4 % of Control |  |  | partial |  | 1.50 | 0.259 rel.u. | weak |  | 2.12 | 0.707 rel.u. |  |  | no statistically significant effect | 10.4 µM | 51.2 µM
